Laboratory results from patent US8802664B2 (Bioproject, priority 2010, dated 2014).
Where a name gives a salt, the structure may show the parent alone.

Row | melting point | SMILES
1 | 141 °C | CN1CCC(OC(c2cccc(OCCCCCN)c2)c2nc3ccccc3s2)CC1 (stereo not shown) (as salt: oxalate) [Example 371, 5-{3-[benzothiazol-2-yl(1-methylpiperidin-4-yloxy)methyl]phenoxy}pentylamine]
2 | 158 °C | CN1CCC(OC(c2cccc(OCc3ccccn3)c2)c2nc3ccccc3s2)CC1 (stereo not shown) (as salt: oxalate) [Example 283, 2-{(1-methylpiperidin-4-yloxy)[3-(pyridin-2-ylmethoxy)phenyl]methyl}benzothiazole]
3 | 145 °C | CN1CCC(OC(c2cccc(N3CCCC3CN)c2)c2nc3ccccc3s2)CC1 (stereo not shown) (as salt: oxalate) [Example 482]
4 | 100 °C | CN1CCC(OC(c2cccc(-c3ccc(F)cc3)c2)c2nc3ccccc3[nH]2)CC1 (stereo not shown) (as salt: oxalate) [Example 115, 2-[(4′-fluorobiphenyl-3-yl)(1-methylpiperidin-4-yloxy)methyl]-1H-benzimidazole]
5 | 101 °C | CN1CCC(OC(c2cccc(OCCCCCN3CCN(C(=O)OC(C)(C)C)CC3)c2)c2nc3ccccc3[nH]2)CC1 (stereo not shown) (as salt: oxalate) [Example 391, 4-(5-{3-[(1H-benzimidazol-2-yl)(1-methylpiperidin-4-yloxy)methyl]phenoxy}pentyl)piperazine-1-carboxylic acid tert-butyl ester]
6 | 115 °C | CN1CCC(OC(c2cccc(C#CCCCn3cccn3)c2)c2nc3ccccc3[nH]2)CC1 (stereo not shown) (as salt: oxalate) [Example 410, 2-{(1-methylpiperidin-4-yloxy)[3-(5-pyrazol-1-yl-pent-1-ynyl)phenyl]methyl}-1H-benzimidazole]
7 | 59 °C | CCCOc1cccc(C(OC2CCN(C)CC2)c2nc3ccccc3s2)c1 (stereo not shown) (as salt: hydrochloride) [Example 26, 2-[(1-methylpiperidin-4-yloxy)(3-propoxy-phenyl)methyl]benzothiazole]
8 | 106 °C | CN1CCC(OC(c2cccc(OCCCF)c2)c2nc3ccccc3[nH]2)CC1 (stereo not shown) (as salt: oxalate) [Example 475]
9 | 182 °C | CN1CCC(OC(c2nc3ccccc3s2)c2ccc(F)cc2F)CC1 (stereo not shown) (as salt: oxalate) [Example 12, 2-[(2,4-difluorophenyl)(1-methyl-piperidin-4-yloxy)methyl]-benzothiazole]
10 | 98 °C | CN1CCC(OC(c2cccc(OCc3cccc(F)c3F)c2)c2nc3ccccc3s2)CC1 (stereo not shown) (as salt: oxalate) [Example 161, 2-[[3-(2,3-difluorobenzyloxy)phenyl](1-methylpiperidin-4-yloxy)methyl]benzothiazole]
11 | 118 °C | CN1CCC(NC(c2cccc(OCc3ccccc3F)c2)c2nc3ccccc3[nH]2)CC1 (stereo not shown) (as salt: oxalate) [Example 113, {(1H-benzimidazol-2-yl)[3-(2-fluorobenzyloxy)phenyl]methyl}(1-methylpiperidin-4-yl)amine]
12 | 55 °C | CN1CCC(OC(c2cccc(OCC3CCCNC3)c2)c2nc3ccccc3s2)CC1 (stereo not shown) (as salt: oxalate) [Example 378, 2-{(1-methylpiperidin-4-yloxy)[3-(piperidin-3-ylmethoxy)phenyl]methyl}benzothiazole]
13 | 185 °C | CN1CCC(OC(c2cccc(C#CCCCCNC(=N)N)c2)c2nc3ccccc3s2)CC1 (stereo not shown) (as salt: hydrochloride) [Example 342, N-(6-{3-[benzothiazol-2-yl(1-methylpiperidin-4-yloxy)methyl]phenyl}hex-5-ynyl)guanidine]
14 | 130 °C | CN1CCC(OC(c2cc(C(F)(F)F)cc(C(F)(F)F)c2)c2nc3ccccc3[nH]2)CC1 (stereo not shown) (as salt: oxalate) [Example 547]
15 | 145 °C | CN1CCC(OC(c2cccc(N3CCC(N)C3)c2)c2nc3ccccc3s2)CC1 (stereo not shown) (as salt: oxalate) [Example 423, 1-{3-[benzothiazol-2-yl(1-methylpiperidin-4-yloxy)methyl]phenyl}pyrrolidin-3-ylamine]
16 | 117 °C | CN1CCC(OC(c2cccc(N3CC(O)C3)c2)c2nc3ccccc3s2)CC1 (stereo not shown) (as salt: oxalate) [Example 403, 1-{3-[benzothiazol-2-yl(1-methylpiperidin-4-yloxy)methyl]phenyl}azetidin-3-ol]
17 | 99 °C | CN1CCC(OC(c2cccc(N3CCCC3CO)c2)c2nc3ccccc3s2)CC1 (stereo not shown) (as salt: oxalate) [Example 324, (1-{3-[benzothiazol-2-yl(1-methylpiperidin-4-yloxy)methyl]phenyl}pyrrolidin-2-yl)methanol]
18 | 109 °C | CN1CCC(OC(c2nc3ccccc3[nH]2)c2cc(OCCF)ccc2F)CC1 (stereo not shown) (as salt: oxalate) [Example 489]

Row | melting point | SMILES
19 | 192 °C | CN1CCC(OC(c2ccc(F)cc2)c2nc3ccccc3s2)CC1 (stereo not shown) (as salt: oxalate) [Example 3, 2-[(4-fluorophenyl)(1-methylpiperidin-4-yloxy)methyl]benzothiazole]
20 | 172 °C | CN1CCC(OC(c2cccc(OC(F)(F)F)c2)c2nc3ccccc3[nH]2)CC1 (stereo not shown) (as salt: oxalate) [Example 280, 2-[(1-methylpiperidin-4-yloxy)(3-trifluoromethoxy-phenyl)methyl]-1H-benzimidazole]
21 | 74 °C | CN1CCC(OC(c2cccc(OCCCn3nccn3)c2)c2nc3ccccc3s2)CC1 (stereo not shown) (as salt: oxalate) [Example 349, 2-{(1-methylpiperidin-4-yloxy)[3-(3-[1,2,3]triazol-2-yl-propoxy)phenyl]methyl}benzothiazole]
22 | 68 °C | CC(C)Oc1cccc(C(OC2CCN(C)CC2)c2nc3ccccc3s2)c1 (stereo not shown) (as salt: oxalate) [Example 55, 2-[(3-isopropoxyphenyl)(1-methylpiperidin-4-yloxy)methyl]benzothiazole]
23 | 140 °C | CN1CCC(OC(c2cccc(OCCCN3CCN(C(=O)OC(C)(C)C)CC3)c2)c2nc3ccccc3[nH]2)CC1 (stereo not shown) (as salt: oxalate) [Example 360, 4-(3-{3-[(1H-benzimidazol-2-yl)(1-methylpiperidin-4-yloxy)methyl]phenoxy}propyl)piperazine-1-carboxylic acid tert-butyl ester]
24 | 130 °C | COc1ccc(-c2cccc(C(NC3CCN(C)CC3)c3nc4ccccc4s3)c2)cc1 (stereo not shown) (as salt: oxalate) [Example 211, [benzothiazol-2-yl(4′-methoxybiphenyl-3-yl)methyl](1-methylpiperidin-4-yl)amine]
25 | 101 °C | CN1CCC(OC(c2cccc(OCC3CCCCC3)c2)c2nc3ccccc3s2)CC1 (stereo not shown) (as salt: oxalate) [Example 285, 2-[(3-Cyclohexylmethoxyphenyl)(1-methylpiperidin-4-yloxy)methyl]benzothiazole]
26 | 113 °C | CN1CCC(OC(c2cccc(C#CCCCCN)c2)c2nc3ccccc3n2C)CC1 (stereo not shown) (as salt: oxalate) [Example 480, 6-{3-[(1-methyl-1H-benzimidazol-2-yl)(1-methylpiperidin-4-yloxy)methyl]phenyl}hex-5-ynylamine]
27 | 115 °C | CCCCCCc1cccc(C(NC2CCN(C)CC2)c2nc3ccccc3[nH]2)c1 (stereo not shown) (as salt: oxalate) [Example 76, [(1H-benzimidazol-2-yl)(3-hexylphenyl)methyl](1-methylpiperidin-4-yl)amine]
28 | 50 °C | CN1CCC(OC(c2cccc(OC3CCNC3)c2)c2nc3ccccc3s2)CC1 (stereo not shown) (as salt: oxalate) [Example 382, 2-{(1-methylpiperidin-4-yloxy)[3-(pyrrolidin-3-yloxy)phenyl]methyl}benzothiazole]
29 | 71 °C | CN1CCC(OC(c2ccc3c(c2)OCCO3)c2nc3ccccc3s2)CC1 (stereo not shown) (as salt: hydrochloride) [Example 10, 2-[(2,3-dihydrobenzo[1,4]dioxin-6-yl)(1-methylpiperidin-4-yloxy)methyl]benzothiazole]
30 | 153 °C | CN1CCC(OC(c2ccc3occc3c2)c2nc3ccccc3s2)CC1 (stereo not shown) (as salt: oxalate) [Example 46, 2-[benzofuran-5-yl(1-methylpiperidin-4-yloxy)methyl]benzothiazole]
31 | 137 °C | CN1CCC(OC(c2cccc(N3CCC(N)CC3)c2)c2nc3ccccc3s2)CC1 (stereo not shown) (as salt: oxalate) [Example 405, 1-{3-[benzothiazol-2-yl(1-methylpiperidin-4-yloxy)methyl]phenyl}piperidin-4-ylamine]
32 | 135 °C | CN1CCC(OC(c2nc3ccccc3[nH]2)c2cc(O)ccc2F)CC1 (stereo not shown) (as salt: oxalate) [Example 487]
33 | 80 °C | CN1CCC(OC(c2cccc(OCc3cccc(C(F)(F)F)c3)c2)c2nc3ccccc3s2)CC1 (stereo not shown) (as salt: oxalate) [Example 187, 2-{(1-methylpiperidin-4-yloxy)[3-(3-trifluoromethyl-benzyloxy)phenyl]methyl}benzothiazole]
34 | 92 °C | CN1CCC(OC(c2cccc(OCCN3CCN(C(=O)OC(C)(C)C)CC3)c2)c2nc3ccccc3[nH]2)CC1 (stereo not shown) (as salt: oxalate) [Example 369, 4-(2-{3-[(1H-benzimidazol-2-yl)(1-methylpiperidin-4-yloxy)methyl]phenoxy}ethyl)piperazine-1-carboxylic acid tert-butyl ester]
35 | 90 °C | CCOC(=O)NCCCCC#Cc1cccc(C(OC2CCN(C)CC2)c2nc3ccccc3n2C)c1 (stereo not shown) (as salt: oxalate) [Example 549, ethyl (6-{3-[(1-methyl-1H-benzimidazol-2-yl)(1-methylpiperidin-4-yloxy)methyl]phenyl}hex-5-ynyl)carbamate]

Row | SMILES | melting point
36 | CN1CCC(OC(c2cccc(OCCCCN3CCOCC3)c2)c2nc3ccccc3[nH]2)CC1 (stereo not shown) (as salt: oxalate) [Example 332, 2-{(1-methylpiperidin-4-yloxy)[3-(4-morpholin-4-yl-butoxy)phenyl]methyl}-1H-benzimidazole] | 85 °C
37 | CN1CCC(OC(c2cccc(OCCCCN3CCCCC3)c2)c2nc3ccccc3[nH]2)CC1 (stereo not shown) (as salt: oxalate) [Example 333, 2-{(1-methylpiperidin-4-yloxy)[3-(4-piperidin-1-yl-butoxy)phenyl]methyl}-1H-benzimidazole] | 130 °C
